# Key:
# [1] = tested on: rabbits; assay: Intraventricular infusion in rabbits, EEG slow-wave sleep (SWS); details: for % SWS, 6 hr post infusion, Expt: intraventricular, hr 2-6 after infusion, mean ± SEM or range
# Protocol: Calibrated glass bead thermistors (Fenwall; 1.2-mm outside diameter, 50 omega/°C.) were implanted through burr holes in frontal bone: the thermistor leads were buried in a mound of dental cement that also insulated the screw electrodes and supported a 9-pin miniature electrical connector. In some experiments, the rectal temperatures were measured at intervals by using a calibrated thermistor probe; temperatures estimated from the implanted brain thermistors were generally within 0.3° C. of simultaneously recorded rectal temperature.
# New Zealand rabbits (male, 3-5 kg) or domestic cats were adapted to the infusion cages in a temperature-controlled room (21°-2° C.) on a 12:12 light/dark cycle. Intraventricular infusions or systemic injections were carried out between 0800 and 1000 hr and were followed by 6 or more hr of recording without disturbing the animals.
# EEG, electro-oculogram, and bodily movements were recorded on Grass polygraphs. The amplitude of EEG slow waves was recorded as the rms-rectified output from a 0.5- to 4-Hz bandpass filter (Bunco Electronics, Sharon, (T); the rms component was integrated and the integral was printed on tape every 2 min, thus providing an objective measure of the product of amplitude and duration of EEG slow waves. Each record was also analyzed visually for duration of SWS in rabbits and for both SWS and REM sleep in cats. The infusion and recording systems and examples of analysis of records are described in 1, 12, 15.
# [2] = tested on: rabbits; assay: Antipyretic (acetaminophen, indomethacin, aspirin) with AcMur-ala-igln in rabbits, SWS and temperature; type: in vivo; details: for suppression of the pyrogenic (febrile) effects of AcMur-ala-igln by the antipyretic: AcMur-ala-igln delivered intravenously in rabbits
# Protocol: Acetaminophen (Sigma) was dissolved in sterile pyrogen-free saline.
# For this reason, the less toxic acetaminophen was used to suppress the pyrogenic effects of AcMur-ala-igln.
# In FIG. 5, the symbols mean the following: , AAP alone; , AAP followed by 120 μg of AcMur-ala-igln intravanously at time zero. Each value is mean ±SEM of six assays in six rabbits. In A, the average of the individual increases (ΔT values) in rectal temperature induced by AcMur-ala-igln together with AAP is compared with that induced by AAP alone in each of six rabbits.
# [3] = tested on: rabbits; assay: Toxic reactions to indomethacin alone in rabbits; type: in vivo, rabbit; details: doses as low as 1 mg/kg
# Protocol: (§1) The time course of the pyrogenic response to AcMur-ala-igln was sometimes quite different from that of the somnogenic response and, in some animals, the natural muramyl peptide isolated from urine induced substantial excess SWS without significant alteration of temperature. […] In preliminary experiments, indomethacin was used as an antipyretic because Parant et al. (7) had shown that this drug (in doses of 40 mg/kg) was effective in blocking the pyrogenic response to intravanously administered AcMur-ala-igln. […] For this reason, the less toxic acetaminophen was used to suppress the pyrogenic effects of AcMur-ala-igln. The results for six rabbits injected intravanously with AcMur-ala-igln at 120 μg/kg 30 min after intravanous injection of acetaminophen at 10 mg/kg are summarized in FIG. 5. It is clear that, under these conditions a substantial somnogenic effect was obtained for 3 to 4 hr with only a weak associated febrile response. In some animals, there was no significant increase in temperature during the sleep response.
# [4] = tested on: cats; assay: Toxic reactions to indomethacin alone in cats; type: in vivo, cat; details: doses as low as 1 mg/kg
# Protocol: as §1
smiles,measurement,setting,value
"CC(=O)N[C@H]1C(O)O[C@H](CO)[C@@H](O)[C@@H]1O[C@H](C)C(=O)O (some centres unmarked) [N-acetylmuramic acid, reference compound]",somnogenic effect,"[1]; summary of Table 2, intraventricular, rabbits",no effect
CC(=O)N[C@H]1C(O)O[C@H](CO)[C@@H](O)[C@@H]1O[C@H](C)C(=O)N(C)[C@@H](C)C(=O)N[C@H](CCC(=O)O)C(N)=O (stereo partly drawn) [NAc--Mur--(N--Me)--L-ala-D-igln],"% SWS, 6 hr post infusion, Expt",[1]; dose 0.2 nmol,32-47%
CC(=O)NC1C(O)OC(CO)C(O)C1OC(C)C(=O)NC(C)C(=O)NC(CCC(=O)O)C(N)=O [NAc--Mur--D-ala-D-igln],"% SWS, 6 hr post infusion, Expt",[1]; dose 0.5 nmol,35 ± 2%
same,"% SWS, 6 hr post infusion, Expt",[1]; dose 1.0 nmol,35 ± 2%
"CC(=O)N[C@H]1C(O)O[C@H](CO)[C@@H](O)[C@@H]1O[C@H](C)C(=O)N[C@@H](C)C(=O)N[C@H](CCC(N)=O)C(=O)O (stereo partly drawn) [NAc--Mur--L-ala-D-gln, NAc-Mur-L-ala-D-gln]","% SWS, 6 hr post infusion, Expt",[1]; dose 2.0 nmol,45 ± 1%
same,"% SWS, 6 hr post infusion, Expt",[1]; dose 20.0 nmol,58-66%
COC(=O)[C@@H](CCC(N)=O)NC(=O)[C@H](C)NC(=O)[C@@H](C)O[C@H]1[C@H](O)[C@@H](CO)OC(O)[C@@H]1NC(C)=O (stereo partly drawn) [NAc--Mur--L-ala-D-gln-alpha OMe],"% SWS, 6 hr post infusion, Expt",[1]; dose 0.5 nmol,31-45%
CCCCOC(=O)[C@@H](CCC(N)=O)NC(=O)[C@H](C)NC(=O)[C@@H](C)O[C@H]1[C@H](O)[C@@H](CO)OC(O)[C@@H]1NC(C)=O (stereo partly drawn) [NAc--Mur--L-ala-D-gln-n-Bu ester],"% SWS, 6 hr post infusion, Expt",[1]; dose 0.25 nmol,41-47%
CC(=O)N[C@H]1C(O)O[C@H](CO)[C@@H](O)[C@@H]1O[C@H](C)C(=O)N[C@@H](C)C(=O)N[C@H](CCC(N)=O)C(N)=O (stereo partly drawn) [NAc--Mur--L-ala-D-glu(NH2)--NH2],"% SWS, 6 hr post infusion, Expt",[1]; dose 2.0 nmol,43 ± 1%
"COC(=O)CC[C@@H](NC(=O)[C@H](C)NC(=O)C(C)O[C@H]1[C@H](O)[C@@H](CO)O[C@H](O)[C@@H]1NC(C)=O)C(=O)OC (stereo partly drawn) [NAc--Mur--L-ala-D-glu(OMe)--OMe, NAc-Mur-L-ala-D-glu(OMe)-OMe]","% SWS, 6 hr post infusion, Expt",[1]; dose 2.0 nmol,66 ± 4%
"CC(=O)N[C@H]1C(O)O[C@H](CO)[C@@H](O)[C@@H]1O[C@H](C)C(=O)N[C@@H](C)C(=O)N[C@H](CCC(=O)O)C(=O)O (stereo partly drawn) [NAc--Mur--L-ala-D-glu, NAc-Mur-L-ala-D-glu]","% SWS, 6 hr post infusion, Expt",[1]; dose 0.2 nmol,43 ± 3%
same,"% SWS, 6 hr post infusion, Expt",[1]; dose 2.0 nmol,51 ± 3%
"COC(=O)[C@@H](CCC(=O)O)NC(=O)[C@H](C)NC(=O)[C@@H](C)O[C@H]1[C@H](O)[C@@H](CO)OC(O)[C@@H]1NC(C)=O (stereo partly drawn) [NAc--Mur--L-ala-D-glu-alpha-OMe, NAc-Mur-L-ala-D-glu-alpha-OMe]","% SWS, 6 hr post infusion, Expt",[1]; dose 0.2 nmol,47-61%
same,"% SWS, 6 hr post infusion, Expt",[1]; dose 2.0 nmol,72 ± 4%
"COC(=O)CC[C@@H](NC(=O)[C@H](C)NC(=O)[C@@H](C)O[C@H]1[C@H](O)[C@@H](CO)OC(O)[C@@H]1NC(C)=O)C(N)=O (stereo partly drawn) [NAc--Mur--L-ala-D-igln-gamma-OMe, NAc-Mur-L-ala-D-igln-gamma-OMe]","% SWS, 6 hr post infusion, Expt",[1]; dose 2.0 nmol,56 ± 7%
CC(=O)N[C@H]1C(O)O[C@H](CO)[C@@H](O)[C@@H]1O[C@H](C)C(=O)N[C@@H](C)C(=O)N[C@@H](CCC(=O)O)C(N)=O (stereo partly drawn) [NAc--Mur--L-ala-L-igln],"% SWS, 6 hr post infusion, Expt",[1]; dose 0.2 nmol,38 ± 4%
CC(=O)N[C@H]1C(O)O[C@H](CO)[C@@H](O)[C@@H]1O[C@H](C)C(=O)N[C@@H](C)C(=O)N[C@H](CCC(=O)N[C@@H](CCC[C@@H](N)C(=O)O)C(=O)N[C@H](C)C(=O)N[C@H](C)C(=O)O)C(=O)O (stereo partly drawn) [NAc-Mur-L-ala-gamma-D-glu-m-DAP-D-ala-D-ala],"% SWS, 6 hr post infusion, Expt",[1]; dose 0.15 nmol,46 ± 3%
same,"% SWS, 6 hr post infusion, Expt",[1]; dose 0.2 nmol,65 ± 5%
"CC(=O)NC1C(OC2C(CO)OC(O)C(NC(C)=O)C2OC(C)C(=O)NC(C)C(=O)NC(CCC(=O)O)C(N)=O)OC(CO)C(O)C1O (centres unmarked) [Nac--glc-1,4-MDP, NAc-glucosaminyl-(1,4)-MDP]","% SWS, 6 hr post infusion, Expt",[1]; dose 0.2 nmol,60 ± 5%
CC(=O)Nc1ccc(O)cc1 [acetaminophen],effects on sleep or rectal temperature,[2]; AAP alone,no significant effects
same,hourly % SWS (mean ±SEM),"[2]; AAP alone, 10 mg/kg intravenous, six rabbits, FIG. 5",41±3%
same,suppression of the pyrogenic (febrile) effects of AcMur-ala-igln by the antipyretic,[2],completely or partially suppressed
"CC(=O)Oc1ccccc1C(=O)O [aspirin, acetyl salicylic acid]",suppression of the pyrogenic (febrile) effects of AcMur-ala-igln by the antipyretic,[2],like suppression of the febrile response
COc1ccc2c(c1)c(CC(=O)O)c(C)n2C(=O)c1ccc(Cl)cc1 [indomethacin],"toxic reactions (diarrhea, lethargy, inhibition of normal sleep)",[3],toxic reactions
same,"toxic reactions (diarrhea, lethargy, inhibition of normal sleep)",[4],toxic reactions
same,blocking of the pyrogenic or somnogenic effects of intraventricularly administered AcMur-ala-igln,"[2]; indomethacin: 10 out of 10 trials in six rabbits, acetaminophen: two rabbits",did not block
